Source: patent publication US9775915B2, “Trioxacarcins, trioxacarcin-antibody conjugates, and uses thereof” (President and Fellows of Harvard College, priority 2012, dated 2017)
Entries after “also recorded” stand apart in the source; their conditions may differ.

Experiments:
[1] = test system: H460, T-47D, HEK293, N87, MDA-MB-361/DYT2, HT-29, HL-60 and HEL 92.1.7 cells; test: Growth inhibition (GI50) comparison of trioxacarcins, FIG. 10 cell line panel; format: cell-based; settings: structure-activity comments on FIG. 10
Method: Cell Proliferation Assay. A suspension of H460 cells (3000 cells/well) in growth medium was seeded onto a 96-well plate. The 96-well plate was incubated for 24 h at 37° C. Stock solutions of each compound were diluted serially and the resulting solutions were administrated to cells to achieve final concentrations of 110 pM to 250 nM (trioxacarcin A) or 1.1 nM to 2.5 μM (all other compounds). After incubating at 37° C. for 72 h, 20 μL of resazurin solution (Promega CellTiter-Blue® Cell Viability Assay) was added to each well. After incubating at 37° C. for 2.0 h, the fluorescence (560 nm excitation/590 nm emission) was recorded using a microplate reader (SpectraMax PLUS^384) as a measure of viable cells. Percent growth inhibition was calculated for each well, based upon the following formula: Percent growth inhibition=100×(S−B0)/(Bt−B0); where S is the sample fluorescence, Bt is the average fluorescence for a vehicle-treated population of cells at the completion of the assay, and B0 is the average fluorescence for an untreated population of cells at the beginning of the assay. The average percent inhibition at each concentration was plotted against log(concentration), and a curve fit was generated using a four-parameter logistic equation. GI50 values were computed to reflect the concentrations at which the resulting curves pass through 50% inhibition. […]

[2] = test system: H460 cells; test: Cell proliferation assay (CellTiter-Blue resazurin), H460 cells; format: cell-based; settings: 72 h incubation
Method: H460 cells were purchased from American Type Culture Collection (ATCC).
A suspension of H460 cells (3000 cells/well) in growth medium was seeded onto a 96-well plate. The 96-well plate was incubated for 24 h at 37° C. […] After incubating at 37° C. for 72 h, 20 μL of resazurin solution (Promega CellTiter-Blue® Cell Viability Assay) was added to each well. […] Percent growth inhibition was calculated for each well, based upon the following formula: Percent growth inhibition=100×(S−B0)/(Bt−B0); where S is the sample fluorescence, Bt is the average fluorescence for a vehicle-treated population of cells at the completion of the assay, and B0 is the average fluorescence for an untreated population of cells at the beginning of the assay. The average percent inhibition at each concentration was plotted against log(concentration), and a curve fit was generated using a four-parameter logistic equation.

[3] = Chemical stability (base, aqueous or alcoholic solvents); format: physicochemical; settings: basic conditions in aqueous or alcoholic solvents
[4] = test system: lung (LXFL 529L, H-460), mammary (MCF-7), and CNS (SF-268) cancer cell lines; settings: human cancer cell lines; Maskey et al. 2004; cited from earlier work

Structure (SMILES)	antiproliferative activity (in words, FIG. 10) [1]	GI50 [2]	stability under basic conditions [3]	IC70 [4]
COc1c2c(c(O)c3c4c(c(C)cc13)[C@@H]1O[C@@]3(C(OC)OC)O[C@@H]1[C@@](O)(O4)[C@@]31CO1)C(=O)[C@@H](O)C[C@@H]2O[C@H]1C[C@@](C)(O)[C@H](OC(C)=O)[C@H](C)O1 [DC-45-A1]	highly potent antiproliferative agents			
COc1c2c(c(O)c3c4c(c(C)cc13)[C@@H]1O[C@@]3(C(OC)OC)O[C@@H]1[C@@](O[C@H]1C[C@@H](O)[C@@](O)(C(C)=O)[C@H](C)O1)(O4)[C@@]31CO1)C(=O)[C@@H](O)C[C@@H]2O[C@H]1C[C@@](C)(O)[C@H](OC(C)=O)[C@H](C)O1 [trioxacarcin A]		0.85 ± 0.36 nM	unstable	subnanomolar; also recorded: subnanmolar
